# Entries after “also recorded” stand apart in the source; their conditions may differ.
# How the values were obtained:
# Spinaglioma cells SP0001 = test: CCK8 cell proliferation inhibition, spinaglioma cells SP0001; type: cell-based, human; details: for growth inhibition / killing effect on SP0001 cells: CCK8, cytarabine 24, 48, 96 hours, BS 24, 48 hours
# Procedure: (§1) Spinaglioma cells SP0001 in a logarithmic growth phase were digested with trypsin and centrifuged to obtain a cell precipitate, and cells were counted after being re-suspended in a complete medium. Based on the count results, the cells SP0001 were inoculated into a 96-well cell culture plate with 5000 cells per well and cultured in a 37° C. incubator in a 5% CO2 environment. After 24 hours, the cells were treated with drugs. Atemozolomide (TMZ) compound and a benzisoselenazole compound (BS) of the present invention were respectively dissolved in DMSO to prepare a stock solution, which was then dissolved with the complete medium to different drug concentrations. The gradient concentrations of TMZ were 0, 100, 150, 200, 250, 300, 350, and 400 μM. The gradient concentrations of BS were 0, 1, 2, 3, 4, 5, 6, 7, and 8 μM. The medium was removed from the wells, and the corresponding drug solution of each concentration was added with 100 μL per well.
# […] When testing, a CCK8 working solution was prepared in advance, namely, an appropriate volume of working solution was prepared based on 100 μL serum-free medium and 10 μL CCK8 per well, and the working solution was placed in dark. The well plate was taken out of the incubator, the cell medium was removed from the wells to be tested, 110 μL of CCK8 working solution was added to each well, the incubation was continued for 2 hours, then the absorbance at 450 nm was measured on an enzyme-linked immunosorbent assay (ELISA) reader, an inhibition rate corresponding to each concentration was calculated, and IC50 values at corresponding time were calculated using GraphPad 7.0 software.
# This example measured the killing effects of a cytarabine compound and the BS compound of the present invention on two types of spinaglioma cell lines SCA-S01 and SP0001, using the same method as Example 1.
# SCA-S01 cells = test: CCK8 cell proliferation inhibition, spinaglioma cells SCA-S01; type: cell-based, human; details: cytarabine 24, 48, 96 hours, BS 24, 48 hours
# Procedure: as §1, with “The medium was removed from the wells, and the corresponding drug solution of each concentration was added with 100 μL per well.” left out
# The well plate was put back into the incubator, and cell proliferation was tested after 24 and 48 hours, respectively. […] The well plate was taken out of the incubator, the cell medium was removed from the wells to be tested, 110 μL of CCK8 working solution was added to each well, the incubation was continued for 2 hours, then the absorbance at 450 nm was measured on an enzyme-linked immunosorbent assay (ELISA) reader, an inhibition rate corresponding to each concentration was calculated, and IC50 values at corresponding time were calculated using GraphPad 7.0 software. […]
# [1] = system: SP0001 human-derived spinaglioma tumor; test: SP0001 tumor-bearing NPG mouse model, tumor growth inhibition; type: in vivo, NPG immunodeficient mice; details: for tumor volume inhibition rate: end of experiment; for tumor size at end of experiment: intragastric once a day, 24 days
# Procedure: (§2) First, a tumor-bearing mouse model was built. Female NPG immunodeficient mice (6-8 weeks, starting weight 16-21 g, purchased from Beijing Vitalstar Biotechnology Co., Ltd.) were used for experimental research. The animals were raised and operated under sterile conditions, and all animal experiments were conducted in accordance with the international guidelines for animal experimentation. SP0001 human-derived spinaglioma tumor blocks (2-3 mm^3) were prepared and inoculated subcutaneously to the right ventrodorsal side of each NPG mouse. After inoculation, the status of the mice was observed, and the size of the tumor was measured. The animals with a tumor volume of 40 mm^3 were selected for experiment, and the animals that had too large tumor and no tumor were not selected. A total of 40 suitable tumor-bearing animals were selected for the experiment and divided into 5 experimental groups, with 8 mice in each group. The first day of administration was recorded as D1, the second day of administration was recorded as D2, and so on. All the animals were administered intragastrically once a day for 24 consecutive days. […] In the experiment, the physiological saline group was used as a negative control, and the temozolomide (TMZ) treatment group was used as a positive control.
# [2] = system: primary spinaglioma cell line SP0001; test: Live and dead cell fluorescence staining of SP0001 cells; type: cell-based, human; details: 6 μM, treated 48 hours
# Procedure: Fluorescence staining was performed using live and dead cell staining technology on the primary spinaglioma cell line SP0001 treated with the benzisoselenazole compound for 48 hours.
# [3] = Body weight and toxicity in tumor-bearing NPG mice; type: in vivo, NPG immunodeficient mice; details: for toxic and side effects on NPG mice: intragastric once a day, 24 days, BS: BSM and BSH groups, TMZ 30 mg/Kg
# Procedure: as §2
# During the experiment, no clinical abnormal symptoms or animal deaths due to drug toxicity were observed.
# The histogram of the weight change rate of NPG mice after administration was shown in FIG. 9 (BSL, BSM, and BSH represent a low dose group 90 mg/Kg, a medium dose group 180 mg/Kg, and a high dose group 360 mg/Kg of the drug BS respectively).
# [4] = SP0001 cells, CCK8, 24 and 48 hours
SMILES,growth inhibition / killing effect on SP0001 cells (Spinaglioma cells SP0001),inhibitory effect on proliferation of patient-derived spinaglioma cell line (Spinaglioma cells SP0001; [4]),sensitivity of patient-derived spinaglioma to the compound (Spinaglioma cells SP0001; [4]),killing effect on SCA-S01 cells (SCA-S01 cells),tumor volume inhibition rate ([1]; BS high dose 360 mg/Kg) [%],tumor volume inhibition rate ([1]; BS low dose 90 mg/Kg) [%],tumor volume inhibition rate ([1]; BS medium dose 180 mg/Kg) [%],tumor size at end of experiment ([1]; BSH high dose 360 mg/Kg) [mm^3],tumor size at end of experiment ([1]; BSL low dose 90 mg/Kg) [mm^3],tumor size at end of experiment ([1]; BSM medium dose 180 mg/Kg) [mm^3],killing effect [2] [%],weight change during administration ([3]; BSM and BSH groups (180 and 360 mg/Kg)),toxic and side effects on NPG mice [3],tumor volume inhibition rate ([1]; TMZ group 30 mg/Kg) [%],tumor size at end of experiment ([1]; TMZ group 30 mg/Kg) [mm^3],weight loss compared to the Control group (decrease) ([3]; TMZ group 30 mg/Kg)
O=c1c2ccccc2[se]n1CCCCn1[se]c2ccccc2c1=O [BS],significant killing effect,obvious inhibitory effect,sensitive,strong killing effects,45.99,14.01,25.89,82.56±41.40,131.44±39.81,113.29±57.21,90,did not show any weight loss; also recorded: no significant change in body weight,no significant toxic and side effects,–,–,–
"Cn1nnc2c(C(N)=O)ncn2c1=O [TMZ, temozolomide, reference compound]",–,–,–,–,–,–,–,–,–,–,–,–,significant toxic and side effects; also recorded: obvious toxicity,82.59,26.61±10.30,over 20%
"Nc1ccn([C@@H]2O[C@H](CO)[C@@H](O)[C@@H]2O)c(=O)n1 [cytarabine, reference compound]",cannot significantly inhibit the growth,–,–,weak killing effect,–,–,–,–,–,–,–,–,–,–,–,–
